Structures can show the parent of a compound that is named as a salt.

For orientation: IC50 means the concentration that gives 50% inhibition.

The assay concerns the target T1, mGlyT-1b (Mus musculus, UniProt P28571).
T1 construct: host or cells: Flp-in-CHO
T1 sequence (P28571 1-651 isoform P28571-2): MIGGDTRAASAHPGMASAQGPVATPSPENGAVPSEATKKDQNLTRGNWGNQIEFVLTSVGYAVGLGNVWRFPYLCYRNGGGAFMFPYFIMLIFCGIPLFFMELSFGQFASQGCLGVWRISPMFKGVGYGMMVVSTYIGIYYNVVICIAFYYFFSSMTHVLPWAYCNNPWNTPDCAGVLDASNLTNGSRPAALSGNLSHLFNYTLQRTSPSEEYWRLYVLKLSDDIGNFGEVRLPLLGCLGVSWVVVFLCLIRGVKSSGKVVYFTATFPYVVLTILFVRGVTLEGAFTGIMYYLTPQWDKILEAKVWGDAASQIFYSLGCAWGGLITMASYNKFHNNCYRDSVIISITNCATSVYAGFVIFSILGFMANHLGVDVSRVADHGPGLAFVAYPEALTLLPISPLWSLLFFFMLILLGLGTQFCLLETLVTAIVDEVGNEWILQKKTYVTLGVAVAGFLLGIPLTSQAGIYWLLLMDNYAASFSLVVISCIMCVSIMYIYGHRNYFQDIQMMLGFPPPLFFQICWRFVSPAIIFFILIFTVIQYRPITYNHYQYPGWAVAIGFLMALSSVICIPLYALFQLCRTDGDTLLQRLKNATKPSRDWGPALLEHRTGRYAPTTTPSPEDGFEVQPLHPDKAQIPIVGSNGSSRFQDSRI
As to the kind of experiment: Glycine uptake inhibition assay (mGlyT-1b), [3H]-glycine uptake in transfected Flp-in-CHO cells. In kind it is cell-based. To be noted: Flp-in-CHO cells transfected with mGlyT-1b cDNA; [3H]-glycine 60 nM and 25 μM non-radioactive glycine; 20 min preincubation at 22° C.; read-out: IC50 (μM) at GlyT-1; Ic50 (hglyt1b). As to the method:
Nutrient mixture F-12 (Gibco Life-technologies), fetal bovine serum (FBS) 5%, (Gibco life technologies), Penicillin/Streptomycin 1% (Gibco life technologies), Hygromycin 0.6 mg/ml (Gibco life technologies), Glutamine 1 mM Gibco life technologies).
150 mM NaCl, 10 mM Hepes-Tris, pH 7.4, 1 mM CaCl2, 2.5 mM KCl, 2.5 mM MgSO4, 10 mM (+) D-glucose. Flp-in™-CHO (Invitrogen Cat n° R758-07) cells stably transfected with mGlyT1b cDNA.
Glycine Uptake Inhibition Assay (mGlyT-1b)
On day 1 mammalian cells, (Flp-in™-CHO), transfected with mGlyT-1b cDNA, were plated at the density of 40,000 cells/well in complete F-12 medium, without hygromycin in 96-well culture plates. On day 2, the medium was aspirated and the cells were washed twice with uptake buffer (UB). The cells were then incubated for 20 min at 22° C. with either (i) no potential competitor, (ii) 10 mM non-radioactive glycine, (iii) a concentration of a potential inhibitor. A range of concentrations of the potential inhibitor was used to generate data for calculating the concentration of inhibitor resulting in 50% of the effect (e.g. IC50, the concentration of the competitor inhibiting glycine uptake of 50%). A solution was then immediately added containing [^3H]-glycine 60 nM (11-16 Ci/mmol) and 25 μM non-radioactive glycine. The plates were incubated with gentle shaking and the reaction was stopped by aspiration of the mixture and washing (three times) with ice-cold UB. The cells were lysed with scintillation liquid, shaken 3 hours and the radioactivity in the cells was counted using a scintillation counter.
As for `CS(=O)(=O)c1cccc(-c2ccc([C@@H](O)[C@@H](N)c3ccc(Cl)c(Cl)c3)c(F)c2)c1` (racemic) [Example 1, rac-erythro-[2-Amino-2-(3,4-dichloro-phenyl)-1-(3-fluoro-3′-methanesulfonyl-biphenyl-4-yl)-ethanol trifluoroacetate], the IC50 was found to be 0.025 µM.
To `Cc1cc(-c2cncc(F)c2)ccc1[C@@H](O)[C@@H](N)c1ccc(Cl)c(Cl)c1` (racemic) [Example 2, rac-erythro-[2-Amino-2-(3,4-dichloro-phenyl)-1-[4-(5-fluoro-pyridin-3-yl)-2-methyl-phenyl]]-ethanol dihydrochloride] belongs 0.063 µM; to `COc1cc([C@@H](O)[C@@H](N)c2ccc(Cl)c(Cl)c2)ccc1-c1cncc(F)c1` (racemic) [Example 3, rac-erythro-[2-Amino-2-(3,4-dichloro-phenyl)-1-[4-(5-fluoro-pyridin-3-yl)-3-methoxy-phenyl]-ethanoldihydrochloride], 0.186 µM.
To `COc1cc(-c2cncc(F)c2)ccc1[C@@H](O)[C@@H](N)c1ccc(Cl)c(Cl)c1` (racemic) [Example 4, rac-erythro-[2-Amino-2-(3,4-dichloro-phenyl)-1-[4-(5-fluoro-pyridin-3-yl)-2-methoxy-phenyl]-ethanoldihydrochloride] belongs 0.346 µM; to `CS(=O)(=O)c1cccc(-c2cccc([C@@H](O)[C@@H](N)c3ccc(Cl)c(Cl)c3)c2)c1` (racemic) [Example 5, rac-erythro-[2-Amino-2-(3,4-dichloro-phenyl)-1-(3′-methanesulfonyl-biphenyl-3-yl)-ethanol trifluoroacetate], 0.615 µM.
The same measure for `CS(=O)(=O)c1cccc(-c2ccc([C@@H](O)[C@@H](N)c3ccc(Cl)c(Cl)c3)cc2)c1` (racemic) [Example 7, rac-erythro-[2-Amino-2-(3,4-dichloro-phenyl)-1-(3′-methanesulfonyl-biphenyl-4-yl)-ethanol trifluoroacetate]: 0.041 µM.
Regarding `N[C@@H](c1ccc(Cl)cc1)[C@H](O)c1ccc(OC2CCCOC2)cc1` (mixture of isomers) [Example 9, rac-erythro-[2-Amino-2-(4-chloro-phenyl)-1-[4-(tetrahydro-pyran-3-yloxy)-phenyl]-ethanol], the IC50 came out at 0.138 µM.
To `CC(C)Oc1ccc([C@@H](O)[C@@H](N)c2ccc(Cl)cc2)cc1` (racemic) [Example 10, rac-erythro-[2-Amino-2-(4-chloro-phenyl)-1-(4-isopropoxy-phenyl)-ethanol hydrochloride] belongs 0.188 µM.
The same measure for `CS(=O)(=O)c1cccc(-c2ccc([C@@H](O)[C@@H](N)c3ccc(Cl)c(Cl)c3)nc2)c1` (racemic) [Example 11, rac-erythro-[2-Amino-2-(3,4-dichloro-phenyl)-1-[5-(3-methanesulfonyl-phenyl)-pyridin-2-yl]-ethanol bistrifluoroacetate]: 0.097 µM; for `N[C@@H](c1ccc(Cl)c(Cl)c1)[C@H](O)c1ccc(-c2cncc(F)c2)cn1` (racemic) [Example 12, rac-erythro-[2-Amino-2-(3,4-dichloro-phenyl)-1-(5′-fluoro-[3,3′]bipyridinyl-6-yl)-ethanoltrihydrochloride]: 0.148 µM.
To `COc1cccc(-c2cnc([C@@H](O)[C@@H](N)c3ccc(Cl)c(Cl)c3)c(F)c2)c1` (racemic) [Example 13, rac-erythro-[2-Amino-2-(3,4-dichloro-phenyl)-1-[3-fluoro-5-(3-methoxy-phenyl)-pyridin-2-yl]-ethanoldihydrochloride] belongs 0.113 µM.
As to `Cc1cc([C@@H](O)[C@@H](N)c2ccc(Cl)c(Cl)c2)ccc1-c1cncc(F)c1` (racemic) [Example 14, rac-erythro-[2-Amino-2-(3,4-dichloro-phenyl)-1-[4-(5-fluoro-pyridin-3-yl)-3-methyl-phenyl]-ethanolbis-trifluoroacetate], the IC50 worked out at 0.275 µM.
To `Cc1nc(OC2CCOC2)ccc1[C@@H](O)[C@@H](N)c1ccc(Cl)c(Cl)c1` (mixture of isomers) [Example 15, rac-erythro-[rac-2-Amino-2-(3,4-dichloro-phenyl)-1-[2-methyl-6-(tetrahydro-furan-3-yloxy)-pyridin-3-yl]-ethanoldihydrochloride] belongs 0.021 µM; to `N[C@@H](c1ccc(Cl)c(Cl)c1)[C@H](O)c1ccc(OC2CCOC2)cc1F` (mixture of isomers) [Example 16, rac-erythro-[rac-2-Amino-2-(3,4-dichloro-phenyl)-1-[2-fluoro-4-(tetrahydro-furan-3-yloxy)-phenyl]-ethanol hydrochloride], 0.039 µM; to `Cc1nc(OC2CCOCC2)ccc1[C@@H](O)[C@@H](N)c1ccc(Cl)c(Cl)c1` (racemic) [Example 17, rac-erythro-[2-Amino-2-(3,4-dichloro-phenyl)-1-[2-methyl-6-(tetrahydro-pyran-4-yloxy)-pyridin-3-yl]-ethanoldihydrochloride], 0.043 µM.
To `N[C@@H](c1ccc(Cl)c(Cl)c1)[C@H](O)c1ccc(OC2CCOCC2)c(F)c1` (racemic) [Example 18, rac-erythro-[2-Amino-2-(3,4-dichloro-phenyl)-1-[3-fluoro-4-(tetrahydro-pyran-4-yloxy)-phenyl]-ethanol hydrochloride] belongs 0.049 µM.
The same measure for `N[C@@H](c1ccc(Cl)c(Cl)c1)[C@H](O)c1ccc(OC2CCOC2)nc1` (mixture of isomers) [Example 19, rac-erythro-[rac-2-Amino-2-(3,4-dichloro-phenyl)-1-[6-(tetrahydro-furan-3-yloxy)-pyridin-3-yl]-ethanoldihydrochloride]: 0.082 µM.
For the compound `N[C@@H](c1ccc(Cl)c(Cl)c1)[C@H](O)c1cc(F)c(OC2CCOCC2)c(F)c1` (racemic) [Example 20, rac-erythro-[2-Amino-2-(3,4-dichloro-phenyl)-1-[3,5-difluoro-4-(tetrahydro-pyran-4-yloxy)-phenyl]-ethanol hydrochloride], the IC50 was 0.09 µM.
`Cc1cc(OC2CCOCC2)ncc1[C@@H](O)[C@@H](N)c1ccc(Cl)c(Cl)c1` (racemic) [Example 21, rac-erythro-[2-Amino-2-(3,4-dichloro-phenyl)-1-[4-methyl-6-(tetrahydro-pyran-4-yloxy)-pyridin-3-yl]-ethanoldihydrochloride]: the IC50 turned out to be 0.091 µM.
To `N[C@@H](c1ccc(Cl)c(Cl)c1)[C@H](O)c1ccc(OC2CCOCC2)nc1` (racemic) [Example 22, rac-erythro-[2-Amino-2-(3,4-dichloro-phenyl)-1-[6-(tetrahydro-pyran-4-yloxy)-pyridin-3-yl]-ethanoldihydrochloride] belongs 0.131 µM; to `N[C@@H](c1ccc(Cl)c(Cl)c1)[C@H](O)c1ccc(OC2CCOC2)cn1` (mixture of isomers) [Example 23, rac-erythro-[rac-2-Amino-2-(3,4-dichloro-phenyl)-1-[5-(tetrahydro-furan-3-yloxy)-pyridin-2-yl]-ethanoldihydrochloride], 0.16 µM.
The same measure for `Cc1cc(OC2CCOC2)ncc1[C@@H](O)[C@@H](N)c1ccc(Cl)c(Cl)c1` (mixture of isomers) [Example 24, rac-erythro-[(rac)-2-Amino-2-(3,4-dichloro-phenyl)-1-[4-methyl-6-(tetrahydro-furan-3-yloxy)-pyridin-3-yl]-ethanoldihydrochloride]: 0.205 µM; for `N[C@@H](c1ccc(Cl)c(Cl)c1)[C@H](O)c1ccc(OC2CCOCC2)cn1` (racemic) [Example 25, rac-erythro-[2-Amino-2-(3,4-dichloro-phenyl)-1-[5-(tetrahydro-pyran-4-yloxy)-pyridin-2-yl]-ethanoldihydrochloride]: 0.216 µM; for `Cc1cc([C@@H](O)[C@@H](N)c2ccc(Cl)c(Cl)c2)cnc1OC1CCOCC1` (racemic) [Example 26, rac-erythro-[2-Amino-2-(3,4-dichloro-phenyl)-1-[5-methyl-6-(tetrahydro-pyran-4-yloxy)-pyridin-3-yl]-ethanoldihydrochloride]: 0.239 µM.

The values are drawn from US8367838B2, “Amines or amino alcohols as GLYT1 inhibitors” (Hoffmann-La Roche Inc., priority 2009, dated 2013).
